Test results taken from patent US20100041661A1, “CASPASE INHIBITORS BASED ON PYRIDAZINONE SCAFFOLD” (LG Life Sciences Ltd., priority 2006, published 2010).
pIC50: −log10 of the molar value.

Tests used:
caspase-8 = target: T1, caspase-8 (Homo sapiens, UniProt Q14790); assay: Assay for the caspase inhibitory effect (fluorescent substrate AcDEVD-AFC); format: biochemical; conditions: pH 7.5; 2.1 nM caspase-8, 50 μM AcDEVD-AFC, 25° C., pH 7.50; read-out: Caspase-8 Kobs/[I] (converted)
T1 construct: p10 and p20 subunits (Thornberry, N. A. et al, Nature, 1992, 356, 768) were expressed in E. coli; made in house; host or cells: E. coli
T1 sequence (Q14790 217-374 limits assumed, species assumed): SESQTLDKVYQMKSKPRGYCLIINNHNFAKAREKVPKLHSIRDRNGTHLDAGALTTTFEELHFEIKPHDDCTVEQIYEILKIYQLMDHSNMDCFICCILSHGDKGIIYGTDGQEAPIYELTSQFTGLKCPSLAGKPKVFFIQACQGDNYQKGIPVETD
T1 sequence (Q14790 385-479 limits assumed, species assumed): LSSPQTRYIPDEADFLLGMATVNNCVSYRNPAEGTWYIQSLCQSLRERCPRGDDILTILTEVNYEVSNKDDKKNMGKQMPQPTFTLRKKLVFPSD
Description: Caspase-1 and caspase-8 known as cysteine proteases in the form of α2β2 were expressed, purified, and activated by modifying a method known in Thornberry, N. A. et al, Nature, 1992, 356, 768; Thornberry, N. A. Methods in Enzymology, 1994, 244, 615; Walker, N. P. C. et al. Cell, 1994, 78, 343, and caspase-9 was also purified by a similar method, and the inhibitory activity against them was tested. Briefly describing, p10 and p20 subunits (Thornberry, N. A. et al, Nature, 1992, 356, 768) were expressed in E. coli and purified by nickel column and anionic exchange chromatography to give caspase-1, caspase-8 and caspase-9. The fluorescent substrates AcYVAD-AFC for thus obtained caspase-1, AcDEVD-AFC for caspase-8, and AcLEHD-AFC for caspase-9, were used for determining specific activity of the synthesized inhibitors. The enzyme reaction was carried out at 25° C. with various concentrations of the inhibitors in a buffer solution containing 50 mM HEPES (pH 7.50), 10% (w/v) sucrose, 0.1% (w/v) CHAPS, 100 mM NaCl, 1 mM EDTA, and 10 mM DTT in the presence of 50 μM AcYVAD-AFC for 10 nM caspase-1, 50 μM AcDEVD-AFC for 2.1 nM caspase-8, and 150 μM AcLEHD-AFC for 200 nM caspase-9. The inhibitory constants Ki and Kobs of the inhibitors were determined by measuring the reaction velocity with the time lapse using a fluorescent spectrometer and by obtaining the initial rate constant. Ki was calculated from the Lineweaver Burk Plot, and Kobs from the following Equation 1.
Kobs=−ln(1−At/Aoo)/t [Equation 1]
At means cleavage rate (%) at time t, and
Aoo means the maximum cleavage rate (%).
Spectra MAX GeminiXS Fluorescent Spectrometer of Molecular Device Co. was used at the excitation wavelength of 405 nm and the emission wavelength of 505 nm.

[1] = test system: Jurkat cell (ATCC TIB-152); assay: Fas antibody-induced apoptosis of Jurkat cells, WST-1 method; format: cell-based; conditions: Homo sapiens, apoptosis induced by Fas antibody, alive cells by WST-1
Description: The […] inhibitory activity of the inhibitors was determined by subjecting Jurkat cell (ATCC TIB-152) to apoptosis using Fas antibody (Upstate Biotech 05-201) and by detecting the color change according to the WST-1 method known in Francoeur A. M. and Assalian A. (1996) Biochemica 3, 19-25 to observe the amount of alive Jurkat cells when the cells were treated by the inhibitor. Spectra MAX 340 Spectrometer of Molecular Device Co. was used at the absorbance wavelength of 440 nm.

SMILES	kinact/KI (caspase-8)	pIC50 [1]
CCC(C(=O)N[C@@H](CC(=O)O)C(=O)COc1c(F)c(F)cc(F)c1F)n1nc(C)cc(Cc2ccccc2C(C)(C)C)c1=O (stereo partly drawn) [Example 2, (S)-3-{2-[5-(2-tert-Butyl-benzyl)-3-methyl-6-oxo-6H-pyridazin-1-yl]-butyrylamino}-4-oxo-5-(2,3,5,6-tetrafluoro-phenoxy)-pentanoic acid]	33300 M⁻¹ s⁻¹	6.48
CCC(C(=O)NC(CC(=O)O)C(=O)CF)n1nc(C)cc(Cc2ccccc2C(C)(C)C)c1=O (stereo not drawn) [Example 1, 3-{2-[5-(2-tert-Butyl-benzyl)-3-methyl-6-oxo-6H-pyridazin-1-yl]-butyrylamino}-5-fluoro-4-oxo-pentanoic acid]	91700 M⁻¹ s⁻¹	6.85
Cc1cc(Cc2ccccc2C(C)(C)C)c(=O)n(C(C)C(=O)N[C@@H](CC(=O)O)C(=O)COc2c(F)c(F)cc(F)c2F)n1 (stereo partly drawn) [Example 3, (S)-3-{2-[5-(2-tert-Butyl-benzyl)-3-methyl-6-oxo-6H-pyridazin-1-yl]-propionylamino}-4-oxo-5-(2,3,5,6-tetrafluoro-phenoxy)-pentanoic acid]	6670 M⁻¹ s⁻¹	–

Other lines, results leading:

kinact/KI (caspase-8)	pIC50 [1]	SMILES
2830 M⁻¹ s⁻¹	–	CCC(C(=O)N[C@@H](CC(=O)O)C(=O)COc1c(F)c(F)cc(F)c1F)n1nc(Cc2ccccc2C(C)(C)C)ccc1=O (stereo partly drawn) [Example 6, (S)-3-{2-[3-(2-tert-Butyl-benzyl)-6-oxo-6H-pyridazin-1-yl]-butyrylamino}-4-oxo-5-(2,3,5,6-tetrafluoro-phenoxy)-pentanoic acid]
33300 M⁻¹ s⁻¹	6.77	CCC(C(=O)N[C@@H](CC(=O)O)C(=O)COc1c(F)c(F)cc(F)c1F)n1nccc(Cc2ccccc2C(C)(C)C)c1=O (stereo partly drawn) [Example 5, (S)-3-{2-[5-(2-tert-Butyl-benzyl)-6-oxo-6H-pyridazin-1-yl]-butyrylamino}-4-oxo-5-(2,3,5,6-tetrafluoro-phenoxy)-pentanoic acid]
3330 M⁻¹ s⁻¹	–	Cc1cc(Cc2ccccc2C(C)(C)C)c(=O)n(CC(=O)N[C@@H](CC(=O)O)C(=O)COc2c(F)c(F)cc(F)c2F)n1 [Example 4, (S)-3-{2-[5-(2-tert-Butyl-benzyl)-3-methyl-6-oxo-6H-pyridazin-1-yl]-acetylamino}-4-oxo-5-(2,3,5,6-tetrafluoro-phenoxy)-pentanoic acid]
